These results are taken from publication PMC12473165, “Theranostic Potential of a New ^64Cu-Labeled NOTA-R954 Peptide Conjugate for Kinin B1R Expressing Prostate Cancer” (Pharmaceutics, 2025).

Broadly, the IC50 is the point on the concentration scale where inhibition reaches its midpoint. In general, EC50 refers to the concentration at which the effect is half-maximal.

Data set [1] addresses T1, hB1R (Homo sapiens, UniProt P46663).
T1 sequence (P46663 1-353): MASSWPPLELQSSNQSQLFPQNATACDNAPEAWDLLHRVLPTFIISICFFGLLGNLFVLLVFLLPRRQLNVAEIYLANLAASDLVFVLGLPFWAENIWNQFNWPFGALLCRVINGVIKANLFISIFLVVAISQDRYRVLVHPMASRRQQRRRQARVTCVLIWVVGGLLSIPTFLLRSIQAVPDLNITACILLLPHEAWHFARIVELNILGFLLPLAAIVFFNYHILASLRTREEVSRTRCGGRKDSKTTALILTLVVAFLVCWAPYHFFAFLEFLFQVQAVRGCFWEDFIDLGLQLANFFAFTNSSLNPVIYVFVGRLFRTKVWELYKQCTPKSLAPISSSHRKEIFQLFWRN
Nature of the data set: NFAT-eGFP reporter assay in CHO-hB1R-NFAT-eGFP cells. It counts as cell-based. Also noted: expressed in transfected cells; host or cells: CHO (hB1R-expressing line, then transduced with NFAT-eGFP reporter). The settings on record: means of two independent experiments; for IC50: hB1R-stably expressing CHO-NFAT cells, antagonist potency, read-out: CHO-NFAT IC50 (Table S1); for EC50: hB1R-stably expressing CHO-NFAT-eGFP cells, agonist potency, 16 h stimulation, read-out: CHO-NFAT EC50 (Table S2). From the text:
The pLenti-6V5-NFAT-eGFP vector was generated from the pSIRV-NFAT-eGFP vector (a gift from Peter Steinberger, Addgene plasmid #118031). Briefly, NFAT-eGFP gene was PCR amplified using the following primers: 5′-[…]-3′ and 5′-[…]-3′). The amplified gene was then ligated into the ClaI and AgeI restriction sites of the pLenti-6V5 vector. Lentiviruses were produced using the pLenti-6V5-NFAT-eGFP vector in HEK293T cells and used to transduce a hB1R-expressing CHO cell line, followed by selection with 10 µg/mL blasticidin. […] Clones were grown in 4000 nanowells/well in 24-well plates and re-plated into 96-well plates after initial expansion via the ALS CellCelector™ (Sartorius Corporation, Bohemia, NY, USA). After clonal expansion, individual cell lines were evaluated based on their ratio of stimulated fluorescence to basal expression to determine maximum sensitivity.
Fluorescence assays performed on CHO-hB1R-NFAT-eGFP cells. Target cells were plated at 10,000 cells/well in a 96-well microplate (opaque black wells with clear flat bottom, Thermo Scientific, Rockford, IL, USA) using RPMI 1640 medium with 10% fetal bovine serum (FBS). After 24 h, the medium was replaced by RPMI without FBS and phenol red. […] Fluorescence was measured using a TECAN M1000 (Tecan Group Ltd., Männedorf, Switzerland) multimode microplate reader with excitation at 488 nm and emission at 507 nm. Each data point represents a ratio of two values, divided by the average fluorescence of six control wells. […] Antagonist affinity (Kb) was estimated from functional inhibition curves using the Gaddum (Schild) equation assuming competitive antagonism at human B1R: Kb = [B]/(dose-ratio–1), where [B] is the antagonist concentration, and the dose ratio is EC50 + Compound/EC50.
A general note: A reporter such as luciferase makes a cellular process visible.

Data set [2] addresses T1, hB1R. Nature of the data set: Radioligand competition binding on HEK293 cells stably expressing hB1R. Also noted: expressed in transfected cells; host or cells: QBI-HEK293A (lentiviral transduction, puromycin selection). The settings on record: hB1R-stably expressing HEK293 cells, means of two independent experiments.
In data set [3] the test system is PC3 xenografts. The data set is described as follows: Peptide receptor radionuclide therapy (PRRT) in PC3 xenograft-bearing mice. The settings on record: nude mice with s.c. PC3 xenografts, single IV dose 50 µg/kg; 65 MBq. It counts as in vivo, mouse. The protocol:
Male Nu/Nu nude mice (Crl:NU-Foxn1nu: 4–6 weeks old, Charles River Laboratories, Inc., Wilmington, MA, USA) were subcutaneously (s.c.) inoculated into one or both lower flanks with PCa cells. LNCap cells (10 x 10^6) and PC3 cells (2.5 × 10^6) were suspended in 0.2 mL of a 1:1 (v/v) mixture of antibiotic-free DMEM medium and Matrigel (#356234, Sigma-Aldrich) for injection. Within 10–21 days post-inoculation, solid palpable prostate tumors had developed, and the animals were used for biodistribution, PET imaging, and radiotherapy studies. […]
Therapeutic efficacies of agents were investigated in PC3 xenograft-bearing mice. […] Tumor growth was monitored with a digital vernier caliper using the following formula: length × width^2. The weight of the mice was monitored throughout the study. […] Tumor growth was normalized by calculating the ratio of the tumor volume at each time point to the initial tumor volume measured prior to treatment. […]. […]
Retrieved subcutaneous tumors (5 μm thick sections) were evaluated by H&E and semiquantitative IHC staining of B1R, Ki67 (proliferation), cleaved caspase 3 (apoptosis), CD34 (angiogenesis), and LYVE-1 (lymphangiogenesis). […] Positive Ki67 staining was determined by the nucleus count (Ki-67+ cells/total cells) in sampled fields. […]

For data set [4] the following is noted: mouse, in vivo, iv. The protocol: To perform ex vivo biodistribution studies, radiolabeled peptides (5–10 MBq; 100 μL) were administered to isoflurane-anaesthetized normal male Balb/c mice through caudal vein injection. Organs were collected 1 h and 4 h post-injections from CO2 inhalation-euthanized animals and were washed, weighted, and radioactivity measured in a gamma counter (Cobra II auto-gamma counter, Packard). The percentage of injected dose per gram of tissue (%ID/g) was then calculated, accounting for decay correction, using external ^64Cu standards. Biodistribution of the radiolabeled peptides was also performed in PCa tumor-bearing nude mice using micro-PET imaging performed on a 7.5 cm axial and 10 cm transaxial field of view LabPET8 small-animal scanner (Gamma Medica-IDEAS Inc., Northridge, CA, USA) in combination with X-ray computer tomography (CT) (MILabs U-CT system, Utrecht, The Netherlands). For this, radiolabeled peptides (6–9 MBq in 200 μL) were delivered by tail-vein injection to isoflurane-anaesthetized mice. PET scans composed of 30 min static acquisition were acquired at 1 h and 20 h after injection. […] To quantify the tumor uptake of the radiotracer, a volume of interest (VOI) was drawn around the center of the tumor. The uptake was determined as the means of the VOI voxels having intensity in the upper quartile.

[5] abbreviates: binding affinity, read-out: HEK293 IC50 (Table S1).
The mark [6] stands for this setting: binding affinity of agonists, read-out: HEK293 IC50 (Table S2).

Where “and” joins values, the source holds several entries; their conditions need not be identical. Identical values can stand only once. Square brackets hold non-standard residues; d marks the D form. Peptide text beside a SMILES is read from it. * marks the point of attachment. NOTA = O=C(O)CN1CCN(CC(=O)O)CCN(CC(=O)*)CC1; Oic = O=C(O)[C@@H]1C[C@@H]2CCCC[C@@H]2N1; d2Nal = N[C@H](Cc1ccc2ccccc2c1)C(=O)O; αMeF = C[C@](N)(Cc1ccccc1)C(=O)O; Orn = NCCC[C@H](N)C(=O)O; βAla = NCCC(=O)O

`CC[C@H](C)[C@H](NC(=O)[C@@H](Cc1ccc2ccccc2c1)NC(=O)[C@H](CO)NC(=O)[C@](C)(Cc1ccccc1)NC(=O)CNC(=O)[C@@H]1CCCN1C(=O)C1CC2CCCCC2N1C(=O)[C@H](CCCNC(=N)N)NC(=O)[C@H](CCCN)NC(=O)CN1CCN(CC(=O)O)CCN(CC(=O)O)CC1)C(=O)O` (stereo partly shown) [MAB7020]: the IC50 in data set [1] was 0.4 nM; in data set [2] (setting [5]), 5 nM.
With `CC[C@H](C)[C@H](NC(=O)[C@@H](Cc1ccc2ccccc2c1)NC(=O)[C@H](CO)NC(=O)[C@](C)(Cc1ccccc1)NC(=O)CNC(=O)[C@@H]1CCCN1C(=O)[C@@H]1C[C@@H]2CCCC[C@@H]2N1C(=O)[C@H](CCCNC(=N)N)NC(=O)[C@H](CCCN)NC(=O)CCNC(=O)CN1CCN(CC(=O)O)CCN(CC(=O)O)CC1)C(=O)O` [^64Cu/NOTA-βAla-R954, metal not drawn] ({NOTA-βAla}-[Orn]R[Oic]PG[αMeF]S[d2Nal]I-OH), the “observable toxicity (body weight)” value in data set [3] was “did not induce any observable toxicity”. For the same compound, the “clearance from the bloodstream” value in data set [4] is given as “rapid clearance”.
In the case of `CNCC(=O)N[C@@H](CCCCNC(=O)CN1CCN(CC(=O)O)CCN(CC(=O)O)CC1)C(=O)N[C@@H](CCCNC(=N)N)C(=O)N1CCC[C@H]1C(=O)N1CCC[C@H]1C(=O)NCC(=O)N[C@@H](Cc1ccccc1)C(=O)N[C@@H](CO)C(=O)N1CCC[C@H]1C(=O)N[C@H](Cc1ccccc1)C(=O)O` [MAB8066], the EC50 in data set [1] came out at 41 nM. The IC50 in data set [2] (setting [6]) is 40 nM.
`N=C(N)NCCC[C@H](NC(=O)[C@H](CCCCN)NC(=O)CCNC(=O)CN1CCN(CC(=O)O)CCN(CC(=O)O)CC1)C(=O)N1CCC[C@H]1C(=O)N1CCC[C@H]1C(=O)NCC(=O)N[C@@H](Cc1ccccc1)C(=O)N[C@@H](CO)C(=O)N1CCC[C@H]1C(=O)N[C@H](Cc1ccccc1)C(=O)O` [MAB2047]: the EC50 in data set [1] was found to be 2.2 nM. The IC50 in data set [2] (setting [6]) came out at 2.3 nM.
Turning to `CC[C@H](C)[C@H](NC(=O)[C@@H](Cc1ccc2ccccc2c1)NC(=O)[C@H](CO)NC(=O)[C@](C)(Cc1ccccc1)NC(=O)CNC(=O)[C@@H]1CCCN1C(=O)[C@@H]1C[C@@H]2CCCC[C@@H]2N1C(=O)[C@H](CCCNC(=N)N)NC(=O)[C@H](CCCN)NC(=O)CN1CCN(CC(=O)O)CCN(CC(=O)O)CC1)C(=O)O` (natCu complex, metal not drawn) [MAB7090], the IC50 is 9.8 nM and 10 nM in data set [1]; 13 nM in data set [2] (setting [5]).
